Reference: US20100190788A1, “Amide derivatives as kinase inhitors” (priority 2005, published 2010)
Counter-ions that a name gives are not always drawn.

Target: T1, human ROCKα/ROCKII mix (Homo sapiens, UniProt O75116)
T1 construct: purchased Upstate Biotechnology 14-451
Assay: ROCK inhibition, fluorescence polarization (FP) assay with ROCK IMAP Kit
Type: biochemical
Details: Table 4, compounds 132 to 156

T1 sequence (O75116 whole entry): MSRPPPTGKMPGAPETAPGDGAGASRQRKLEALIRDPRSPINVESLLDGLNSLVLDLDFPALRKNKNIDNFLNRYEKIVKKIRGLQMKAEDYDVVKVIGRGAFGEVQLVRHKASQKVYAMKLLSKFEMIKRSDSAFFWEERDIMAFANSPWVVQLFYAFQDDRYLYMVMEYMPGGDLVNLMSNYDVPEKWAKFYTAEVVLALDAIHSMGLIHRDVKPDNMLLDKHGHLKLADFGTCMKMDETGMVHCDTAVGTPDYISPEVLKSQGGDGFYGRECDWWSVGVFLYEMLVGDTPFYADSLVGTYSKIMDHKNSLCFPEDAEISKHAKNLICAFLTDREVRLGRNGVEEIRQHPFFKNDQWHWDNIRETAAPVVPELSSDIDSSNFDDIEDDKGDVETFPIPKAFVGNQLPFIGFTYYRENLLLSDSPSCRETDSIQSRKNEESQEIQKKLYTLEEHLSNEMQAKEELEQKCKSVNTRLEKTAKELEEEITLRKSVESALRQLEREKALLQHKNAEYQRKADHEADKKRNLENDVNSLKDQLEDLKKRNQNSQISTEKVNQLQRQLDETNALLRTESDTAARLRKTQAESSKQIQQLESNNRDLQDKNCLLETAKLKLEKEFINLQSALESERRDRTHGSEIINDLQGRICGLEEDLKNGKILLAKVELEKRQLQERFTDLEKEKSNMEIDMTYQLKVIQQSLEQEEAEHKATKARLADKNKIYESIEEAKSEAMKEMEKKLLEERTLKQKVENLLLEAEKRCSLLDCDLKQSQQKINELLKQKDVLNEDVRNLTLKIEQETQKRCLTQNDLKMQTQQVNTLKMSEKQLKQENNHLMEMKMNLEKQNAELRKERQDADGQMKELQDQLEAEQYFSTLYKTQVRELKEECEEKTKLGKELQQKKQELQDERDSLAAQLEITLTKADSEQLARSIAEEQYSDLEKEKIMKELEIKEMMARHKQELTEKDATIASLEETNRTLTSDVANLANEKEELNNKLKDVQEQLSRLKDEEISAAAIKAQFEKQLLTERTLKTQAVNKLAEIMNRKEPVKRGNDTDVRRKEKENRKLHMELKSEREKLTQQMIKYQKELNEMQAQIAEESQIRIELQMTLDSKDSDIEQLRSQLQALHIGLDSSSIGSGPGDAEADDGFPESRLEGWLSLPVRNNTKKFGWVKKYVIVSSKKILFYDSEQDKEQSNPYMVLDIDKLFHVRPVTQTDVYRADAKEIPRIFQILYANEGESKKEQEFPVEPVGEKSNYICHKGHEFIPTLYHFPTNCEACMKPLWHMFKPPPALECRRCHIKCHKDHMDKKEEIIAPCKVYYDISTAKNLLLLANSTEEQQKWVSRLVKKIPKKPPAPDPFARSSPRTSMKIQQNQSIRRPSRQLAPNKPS

Work on N[C@@H](C(=O)NCc1ccccc1)c1ccc(C(=O)Nc2ccncc2)cc1 [Compound 156, 4-((R)-Amino-benzylcarbamoyl-methyl)-N-pyridin-4-yl-benzamide dihydrochloric acid salt] yielded an IC50 of 0.5 to 5 µM.
